Data set [1] deals with isolated rabbit portal vein. In words: Effects on the isolated rabbit portal vein (contraction, in vitro). Format: cell-based. The note with it: for EC50 / Emax: Oryctolagus cuniculus; for EC50: read-out: Portal vein, in vitro: EC50 value (effective concentration inducing a half maximum contraction); for Emax / Portal vein, in vitro: Max. contraction: cumulative addition (12 concentrations), reference noradrenaline 6×10^-5 M. The procedure:
(§1) Female rabbits weighing 2.5-3.0 kg were sacrificed and exsanguinated. The urethra and portal vein were dissected out and suspended in organ baths containing oxygenated Krebs solution at 37° C. Two rings of urethra (4 mm broad) and two longitudinal strips of the portal vein were used. The basal tension was adjusted to about 10 mN after an equilibration time of 60 minutes. Isometric tension was recorded via a force transducer (Statham FT03) and registered on a Grass polygraph model 7.
(§2) Submaximum concentrations of noradrenaline (6×10^-5 M) were used to achieve reference contractions.
(§3) The test substances were added cumulatively (12 concentrations) until a maximum response was obtained.

A further data set concerns isolated rabbit urethra. Briefly: Effects on the isolated rabbit urethra (contraction, in vitro). The data set is classed as cell-based. Conditions: Krebs solution, 37° C.; for EC50: cumulative addition; for Emax / Urethra, in vitro: Max. contraction: cumulative addition (12 concentrations), reference noradrenaline 6×10^-5 M. The procedure:
as §1, §2, §3

Data set [2] deals with blood pressure in anaesthetized rabbits. In words: Effects on blood pressure in anaesthetized rabbits. Conditions: i.v. injections of different doses, femoral artery catheter. The data set is classed as in vivo, rabbit. The procedure: (§4) Rabbits, weighing 2.5-3 kg, were anaesthetized by pentobarbitone (initially 40 mg/kg i.v. and for maintenance anaesthesia 10 mg/kg, h). For recording of urethral pressure a catheter (Dog cath nr 6.) was inserted into the urethra and placed at the point of highest pressure. The basal urethral pressure was approximately 10 cm H2 O. The blood pressure was recorded via a catheter (PP50) inserted into a femoral artery. Substances were injected intravenously into a catheter in a femoral vein. The continuous intravenous infusion of pentobarbitone kept the depth of anesthesia at a constant level through the experiment. Three consecutive noradrenaline injections (0.025 μg/kg i.v.) were given initially to constitute reference responses. Repeated intravenous injections of different doses of the same test compound were given in a randomized manner. […] In other pharmacological experiments (not described here) it was also shown that the described compounds had no or minimal effect on other organs, such as for example the urinary bladder, central nervous system, intestine, vas deferens etc.

The test system of data set [3] is urethra (urethral pressure in anaesthetized rabbits). In words: Effects on urethral pressure in anaesthetized rabbits. The data set is classed as in vivo, rabbit. Conditions: reference noradrenaline 0.025 μg/kg i.v. The procedure: as §4
Setting [4] is: read-out: Portal vein, in vitro: Max. contraction, female rabbit portal vein longitudinal strips, Krebs solution, 37° C.
[5] abbreviates: Oryctolagus cuniculus, read-out: Urethra, in vitro: EC50-value (effective concentration inducing a half maximum contraction), female rabbit urethra rings.
[6] abbreviates: Oryctolagus cuniculus, read-out: Urethra, in vitro: Max. contraction, female rabbit urethra rings.
Where [7] appears, read: female rabbit portal vein longitudinal strips, Krebs solution, 37° C.
Where [8] appears, read: read-out: Urethra, in vitro: EC50-value (effective concentration inducing a half maximum contraction), female rabbit urethra rings.
[9] abbreviates: Oryctolagus cuniculus, iv, read-out: Max. urethral pressure in vivo, in % of NA-max, anaesthetized rabbits, i.v. injections of different doses.
Setting [10] is: anaesthetized rabbits, i.v. injections of different doses.
The mark [11] stands for this setting: female rabbit portal vein longitudinal strips, Krebs solution, 37° C., read-out: Portal vein, in vitro: Max. contraction.
Setting [12] is: Oryctolagus cuniculus, female rabbit urethra rings, read-out: Urethra, in vitro: Max. contraction.
Setting [13] is: Oryctolagus cuniculus, female rabbit urethra rings, read-out: Urethra, in vitro: EC50-value (effective concentration inducing a half maximum contraction).
[14] abbreviates: female rabbit portal vein longitudinal strips, cumulative addition, Krebs solution, 37° C.
Where [15] appears, read: Oryctolagus cuniculus, iv, anaesthetized rabbits, i.v. injections of different doses, read-out: Max. urethral pressure in vivo, in % of NA-max.

Structures can show the parent of a compound that is named as a salt. Where two headings read alike, the source gives them in different places.

Consider `CC(C)Oc1c(C(O)CN(C)C)cccc1[N+](=O)[O-]` (stereo not drawn) [Compound 12, α-[(Dimethylamino)methyl]-2-(1-methylethoxy)-3-nitro-benzenemethanol, hydrochloride], for which the EC50 was 17 µM in data set [1] and 11 µM in the data set with isolated rabbit urethra (setting [5]). Further, the figures for the Emax (in data set [1] (setting [4]); in the data set with isolated rabbit urethra (setting [6])) were 18% and 80%, respectively.
Consider `CC(C)Oc1c(Cl)cccc1C(O)CN(C)C` (single isomer, unassigned; (+)) [Compound 6:2, (+)-3-chloro-α-[(dimethylamino)methyl]-2-(1-methylethoxy)-benzenemethanol], for which the EC50 in data set [1] came out at 17 µM; with isolated rabbit urethra (setting [8]) it was 4.5 µM. The “Portal vein, in vitro: Max. contraction” value in data set [1] (setting [7]) was 15 % of NA-max. Also, the “Urethra, in vitro: Max. contraction” value in the data set with isolated rabbit urethra (female rabbit urethra rings) is recorded as 107 % of NA-max.
For `CC=COc1c(OC)cccc1C(O)CN1CCCC1.O=C(O)C(=O)O` (stereo not drawn) [Compound 8, 3-Methoxy-2-(1-propenyloxy)-α-pyrrolidinomethyl-benzenemethanol, hydrogen oxalate], in data set [1] (setting [7]), the “Portal vein, in vitro: Max. contraction” value is reported as 0 % of NA-max. Besides, the “Urethra, in vitro: Max. contraction” value in the data set with isolated rabbit urethra (female rabbit urethra rings) was 52 % of NA-max. Also, the EC50 with isolated rabbit urethra (female rabbit urethra rings, read-out: Urethra, in vitro: EC50-value (effective concentration inducing a half maximum contraction)) stood at 190 µM.
Regarding `CCN(CC)CC(O)c1cccc(OC)c1OC(C)C` (stereo not drawn) [Compound 3, α-[(Diethylamino)methyl]-3-methoxy-2-(1-methylethoxy)-benzenemethanol, hydrogen oxalate], the EC50 came out at 130 µM in data set [1] and 6.6 µM in the data set on isolated rabbit urethra (setting [5]). The Emax in data set [1] (setting [4]) turned out to be 11%; in the data set with isolated rabbit urethra (setting [6]) it was 105%; in data set [3] (setting [9]), 131%. In addition, the “Blood pressure; max change, in %” value in data set [2] is on record as -2%.
Take `Cc1cccc(C(O)CN(C)C)c1OC(C)C` (stereo not drawn) [Compound 1, α-[(Dimethylamino)methyl]-2-(1-methylethoxy)-3-methyl-benzenemethanol, hydrochloride]: the EC50 (in data set [1]; in the data set with isolated rabbit urethra (setting [5])) was 24 µM in each case. Further, the Emax was determined as 47% in data set [1] (setting [4]) and 85% in the data set on isolated rabbit urethra (setting [6]).
As to `COc1cccc(C(O)CN(C)C)c1OC(C)C` (single isomer, unassigned) [Compound 6:4, (-)-α-[(dimethylamino)methyl]-3-methoxy-2-(1-methylethoxy)-benzenemethanol], the “Portal vein, in vitro: Max. contraction” value in data set [1] (setting [7]) is reported as 8 % of NA-max. Besides, the “Blood pressure; max change, in %” value in data set [2] is given as 11%. For the same molecule, the “Urethra, in vitro: Max. contraction” value with isolated rabbit urethra (female rabbit urethra rings) is on record as 88 % of NA-max. Besides, the EC50 with isolated rabbit urethra (setting [8]) was 61 µM. Also, in data set [3] (setting [10]), the “Max. urethral pressure in vivo, in % of NA-max” value is given as 150 % of NA-max.
`CC(N)C(O)c1ccccc1` (stereo not drawn) [PPA, phenylpropanolamine, reference compound]: the EC50 in data set [1] amounted to 70 µM; in the data set on isolated rabbit urethra (setting [5]) it was 200 µM. The Emax stood at 67% in data set [1] (setting [4]), 60% in the data set on isolated rabbit urethra (setting [6]) and 99% in data set [3] (setting [9]). Moreover, the “Blood pressure; max change, in %” value in data set [2] is listed as 72%.
As to `CCOc1c(Cl)cccc1C(O)CN(C)C.Cl` (stereo not drawn) [Compound 2, 3-Chloro-α-[(dimethylamino)methyl]-2-ethoxy-benzenemethanol, hydrochloride], the EC50 in data set [1] was 6.7 µM; in the data set on isolated rabbit urethra (setting [5]) it was 18 µM. In addition, the Emax is 22% in data set [1] (setting [4]), 105% in the data set with isolated rabbit urethra (setting [6]) and 123% in data set [3] (setting [9]). Besides, the “Blood pressure; max change, in %” value in data set [2] came to 9%.
Consider `CC(C)Oc1c(Cl)cccc1C(O)CN(C)C` (single isomer, unassigned; (-)) [Compound 6:1], for which, in data set [1] (setting [4]), the Emax turned out to be 9%. In addition, the “Urethra, in vitro: Max. contraction” value with isolated rabbit urethra (female rabbit urethra rings) is recorded as 69 % of NA-max. Moreover, in the data set on isolated rabbit urethra (setting [8]), the EC50 is 21 µM.
Consider `CC(C)Sc1c(Cl)cccc1C(O)CN(C)C` (stereo not drawn) [Compound 13, 3-Chloro-α-[(dimethylamino)methyl]-2-(1-methylethylthio)-benzenemethanol, hydrochloride], for which the figures for the Emax (in data set [1] (setting [4]); with isolated rabbit urethra (setting [6])) were 4% and 45%, respectively. The EC50 in the data set with isolated rabbit urethra (setting [5]) amounted to 77 µM.
For `CC(C)Oc1c(Cl)cccc1C(O)CN(C)C.Cl` (stereo not drawn) [Compound 9, 3-Chloro-α-[(dimethylamino)methyl]-2-(1-methylethoxy)-benzenemethanol, hydrochloride], the figures for the EC50 (in data set [1]; in the data set with isolated rabbit urethra (setting [5])) were 60 µM and 11 µM, respectively. Further, the Emax in data set [1] (setting [4]) stood at 22%; in the data set on isolated rabbit urethra (setting [6]) it was 79%; in data set [3] (setting [9]) it was 192%. The “Blood pressure; max change, in %” value in data set [2] was 14%.
Regarding `CCN(C)CC(O)c1cccc(Cl)c1OC(C)C.Cl` (stereo not drawn) [Compound 11, 3-Chloro-α-[(N-ethyl-N-methylamino)methyl]-2-(1-methylethoxy)-benzenemethanol, hydrochloride], the figures for the EC50 (in data set [1]; in the data set with isolated rabbit urethra (setting [5])) were 4.5 µM and 5.3 µM, respectively. Besides, the values for the Emax (in data set [1] (setting [4]); in the data set on isolated rabbit urethra (setting [6]); in data set [3] (setting [9])) were 54%, 100% and 210%, respectively. The “Blood pressure; max change, in %” value in data set [2] stood at 34%.
For `COc1cccc(C(O)CN2CCCC2)c1OC(C)C` (stereo not drawn) [Compound 5, 3-Methoxy-2-(1-methylethoxy)-α-pyrrolidinomethyl-benzenemethanol, hydrochloride], the Emax in data set [1] (setting [11]) was determined as 6%; with isolated rabbit urethra (setting [12]), 68%. Further, the EC50 in the data set with isolated rabbit urethra (setting [13]) was 110 µM.
For `COc1cccc(C(O)CN(C)C)c1SC(C)C` (stereo not drawn) [Compound 14, α-[(Dimethylamino)methyl]-3-methoxy-2-(1-methylethylthio)-benzenemethanol, hydrochloride], the Emax in data set [1] (setting [4]) came out at 5%; in the data set with isolated rabbit urethra (setting [6]), 67%. Moreover, the EC50 in the data set on isolated rabbit urethra (setting [5]) is 11 µM.
With `C=CCOc1c(OC)cccc1C(O)CN(C)C` (stereo not drawn) [Compound 15, α-[(Dimethylamino)methyl]-3-methoxy-2-(2-propenyloxy)-benzenemethanol, hydrogen oxalate], the EC50 is 90 µM in data set [1] and 47 µM with isolated rabbit urethra (setting [5]). Also, the Emax was found to be 11% in data set [1] (setting [4]) and 104% with isolated rabbit urethra (setting [6]).
As to `CC(C)Oc1c(Cl)cccc1C(O)CN1CCCC1` (stereo not drawn) [Compound 7, 3-Chloro-2-(1-methylethoxy)-α-pyrrolidinomethyl-benzenemethanol, hydrogen oxalate], the figures for the Emax (in data set [1] (setting [11]); with isolated rabbit urethra (setting [12]); in data set [3] (setting [15])) were 14%, 73% and 189%, respectively. In addition, the EC50 came out at 41 µM in data set [1] (setting [14]) and 12 µM in the data set on isolated rabbit urethra (setting [13]). Further, the “Blood pressure; max change, in %” value in data set [2] is on record as -3%.
For `CCN(CC)CC(O)c1cccc(Cl)c1OC(C)C` (stereo not drawn) [Compound 10, 3-Chloro-α-[(diethylamino)methyl]-2-(1-methylethoxy)-benzenemethanol, hydrogen oxalate], the EC50 in data set [1] was 11 µM; with isolated rabbit urethra (setting [5]), 12 µM. Also, the values for the Emax (in data set [1] (setting [4]); in the data set on isolated rabbit urethra (setting [6])) were 28% and 81%, respectively.
Consider `COc1cccc(C(O)CN(C)C)c1OC(C)C` (single isomer, unassigned) [Compound 6:3, (+)-α-[(dimethylamino)methyl]-3-methoxy-2-(1-methylethoxy)-benzenemethanol], for which the EC50 in data set [1] was found to be 120 µM; with isolated rabbit urethra (setting [8]) it was 6.5 µM. Moreover, the “Portal vein, in vitro: Max. contraction” value in data set [1] (setting [7]) is recorded as 34 % of NA-max. In addition, the “Blood pressure; max change, in %” value in data set [2] was determined as 14%. Also, the Emax in the data set with isolated rabbit urethra (setting [6]) was found to be 106%. In addition, the “Max. urethral pressure in vivo, in % of NA-max” value in data set [3] (setting [10]) is 288 % of NA-max.
With `NC[C@H](O)c1ccc(O)c(O)c1` [Noradrenaline, noradrenaline, reference compound], the Emax (in data set [1] (setting [11]); with isolated rabbit urethra (setting [12])) was 100% throughout. In addition, the EC50 in data set [1] (setting [14]) is 5.3 µM; in the data set with isolated rabbit urethra (setting [13]), 16 µM. The Emax at 2.5e-05 mg/kg in data set [3] (setting [15]) came to 100%.

For the origin of these results see patent publication US5527821A, “Pharmacologically active alpha-[tertiary-aminomethyl]-benzenemethanol derivatives” (Pharmacia AB, priority 1992, dated 1996).
